The values that follow come from EP1073435B1, “SUBSTITUTED TRICYCLIC PYRAZOLE DERIVATIVES WITH PROTEIN KINASE ACTIVITY” (Abbott GmbH & Co. KG, priority 1998, dated 1999).

Common to all, as to assay type: biochemical
One test concerns the target T1, KDR tyrosine kinase (Homo sapiens, UniProt P35968).
T1 construct: poly-His6 (N); made in house; host or cells: SF-9 insect cells (baculovirus, pVL1393)
The test is described as follows: KDR in vitro ELISA. The note with it: ELISA assay, ATP 5µM. The source says:
The coding sequence for the KDR intra-cellular domain (aa789-1354) was generated through PCR using cDNAs isolated from HUVEC cells. A poly-His6 sequence was introduced at the N-terminus of this protein as well. This fragment was cloned into transfection vector pVL1393 at the Xba 1 and Not 1 site. Recombinant baculovirus (BV) was generated through co-transfection using the BaculoGold Transfection reagent (PharMingen). Recombinant BV was plaque purified and verified through Western analysis. For protein production, SF-9 cells were grown in SF-900-II medium at 2 x 10^6/ml, and were infected at 0.5 plaque forming units per cell (MOI). Cells were harvested at 48 hours post infection.
SF-9 cells expressing (His)6KDR(aa789-1354) were lysed by adding 50 ml of Triton X-100 lysis buffer (20 mM Tris, pH 8.0, 137 mM NaCl, 10% glycerol, 1% Triton X-100, 1mM PMSF, 10µg/ml aprotinin, 1 µg/ml leupeptin) to the cell pellet from 1L of cell culture. The lysate was centrifuged at 19,000 rpm in a Sorval SS-34 rotor for 30 min at 4°C. The cell lysate was applied to a 5 ml NiCl2 chelating sepharose column, equilibrated with 50 mM HEPES, pH7.5, 0.3 M NaCl. KDR was eluted using the same buffer containing 0.25 M imidazole. Column fractions were analyzed using SDS-PAGE and an ELISA assay (below) which measures kinase activity. […]

Another test concerns the target T2, human Tie-2 (Homo sapiens, UniProt Q02763).
T2 construct: human Tie-2 intra-cellular domain (aa775-1124) was generated through PCR; made in house; host or cells: SF-9 insect cells (baculovirus)
Put plainly: ELISA tyrosine kinase assay, TIE2. The source says:
The coding sequence for the human Tie-2 intra-cellular domain (aa775-1124) was generated through PCR using cDNAs isolated from human placenta as a template. A poly-His6 sequence was introduced at the N-terminus and this construct was cloned into transfection vector […] at the Xba 1 and Not 1 site. Recombinant BV was generated through co-transfection using the BaculoGold Transfection reagent (PharMingen). Recombinant BV was plaque purified and verified through Western analysis. For protein production, SF-9 insect cells were grown in SF-900-II medium at 2 x 10^6/ml, and were infected at MOI of 0.5. Purification of the His-tagged kinase used in screening was analogous to that described for KDR.
The disclosed protocol can be adapted for determining activity with respect to a specific RTK. For example, preferred protocols for conducting the ELISA experiments for KDR is provided below. Adaptation of these protocols for determining a compounds activity for other members of the RTK family, as well as non-receptor tyrosine kinases, are well within the abilities of those in the art.
• 1. Plate Preparation: Dilute PGT stock (50mg/ml, frozen) in PBS to a 250µg/ml. Add 125µl per well of Coming modified flat bottom high affinity ELISA plates (Corning #25805-96). Add 125µl PBS to blank wells. Cover with sealing tape and incubate overnight 37°C. […] Shake on plate reader. • Read OD immediately at 450nm

In the next test the target is T3, zapfl (Homo sapiens, UniProt P43403).
T3 construct: the region encoding the entirety of ZAP70 (amino acids 1-619); made in house; host or cells: SF-9 insect cells (baculovirus, pVL1393)
T3 sequence (P43403 1-619): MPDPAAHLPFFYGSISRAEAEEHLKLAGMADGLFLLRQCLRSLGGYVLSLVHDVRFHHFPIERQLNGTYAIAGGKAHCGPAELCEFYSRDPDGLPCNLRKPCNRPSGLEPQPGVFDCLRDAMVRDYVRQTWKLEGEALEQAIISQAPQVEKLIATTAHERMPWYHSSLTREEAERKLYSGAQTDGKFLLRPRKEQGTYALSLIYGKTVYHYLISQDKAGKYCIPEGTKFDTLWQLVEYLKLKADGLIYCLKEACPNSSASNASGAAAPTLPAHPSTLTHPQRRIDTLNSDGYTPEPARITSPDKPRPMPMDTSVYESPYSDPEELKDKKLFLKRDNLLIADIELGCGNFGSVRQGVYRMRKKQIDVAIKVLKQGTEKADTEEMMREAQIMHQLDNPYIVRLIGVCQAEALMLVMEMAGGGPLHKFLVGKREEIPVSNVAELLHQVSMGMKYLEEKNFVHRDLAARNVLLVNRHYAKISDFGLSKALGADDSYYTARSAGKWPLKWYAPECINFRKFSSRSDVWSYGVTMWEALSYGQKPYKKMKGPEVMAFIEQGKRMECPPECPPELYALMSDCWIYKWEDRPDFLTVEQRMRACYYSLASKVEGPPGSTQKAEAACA
The test is described as follows: ELISA tyrosine kinase assay, zapfl (ZAP70). The source says: The baculoviral expression vector used was pVL1393. (Pharmingen, Los Angeles, Ca.) The nucleotide sequence encoding amino acids M(H)6 LVPR9S was placed 5' to the region encoding the entirety of ZAP70 (amino acids 1-619). The nucleotide sequence encoding the ZAP70 coding region was generated through PCR using cDNA libraries isolated from Jurkat immortalized T-cells. The histidine residues enabled affinity purification of the protein (vide infra). The LVPR9S bridge constitutes a recognition sequence for proteolytic cleavage by thrombin, enabling removal of the affinity tag from the enzyme. SF-9 insect cells were infected at a multiplicity of infection of 0.5 and harvested 48 hours post infection.
SF-9 cells were lysed in a buffer consisting of 20 mM Tris, pH 8.0, 137 mM NaCl, 10% glycerol, 1% Triton X-100, 1 mM PMSF, 1 µg/ml leupeptin, 10 µg/ml aprotinin and I mM sodium orthovanadate. The soluble lysate was applied to a chelating sepharose HiTrap column (Pharmacia) equilibrated in 50 mM HEPES, pH 7.5, 0.3 M NaCl. Fusion protein was eluted with 250 mM imidazole. The enzyme was stored in buffer containing 50 mM HEPES, pH 7.5, 50 mM NaCl and 5 mM DTT.
The disclosed protocol can be adapted for determining activity with respect to a specific RTK. […]
• 1. […] Shake on plate reader. • Read OD immediately at 450nm
On the technique in general: In an ELISA, binding on a coated surface is turned into a signal by an enzyme label.

For a further test, the target named is Lck (Homo sapiens, UniProt P06239). The test is described as follows: ELISA tyrosine kinase assay, Lck. The procedure: Lck or truncated forms of Lck may be commercially obtained ( e.g. from Upstate Biotechnology Inc. (Saranac Lake, N.Y) and Santa Cruz Biotechnology Inc. (Santa Cruz, Ca.)) or purified from known natural or recombinant sources using conventional methods.
Chain of Lck (P06239 whole entry, species assumed, the tested form may be a part): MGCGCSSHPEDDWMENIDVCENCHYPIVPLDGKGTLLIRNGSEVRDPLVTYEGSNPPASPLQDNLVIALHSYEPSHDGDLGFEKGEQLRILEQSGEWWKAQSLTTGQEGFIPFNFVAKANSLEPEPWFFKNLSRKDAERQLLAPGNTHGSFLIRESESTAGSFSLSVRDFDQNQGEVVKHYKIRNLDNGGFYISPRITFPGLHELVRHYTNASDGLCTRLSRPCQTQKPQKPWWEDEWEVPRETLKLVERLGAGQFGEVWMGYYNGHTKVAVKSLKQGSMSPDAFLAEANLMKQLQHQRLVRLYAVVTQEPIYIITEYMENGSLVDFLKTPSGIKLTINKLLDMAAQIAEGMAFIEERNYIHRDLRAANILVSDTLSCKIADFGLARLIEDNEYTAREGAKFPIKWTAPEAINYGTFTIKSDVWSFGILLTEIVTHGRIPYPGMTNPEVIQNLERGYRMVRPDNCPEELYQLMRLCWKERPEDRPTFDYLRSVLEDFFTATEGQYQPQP
• 1. Plate Preparation: Dilute PGT stock (50mg/ml, frozen) in PBS to a 250µg/ml. Add 125µl per well of Coming modified flat bottom high affinity ELISA plates (Corning #25805-96). Add 125µl PBS to blank wells. Cover with sealing tape and incubate overnight 37°C. Wash 1x with 250µl washing buffer and dry for about 2hrs in 37°C dry incubator. Store coated plates in sealed bag at 4°C until used. • 2. Tyrosine Kinase Reaction: • Prepare inhibitor solutions at a 4x concentration in 20% DMSO in water. • Prepare reaction buffer • Prepare enzyme solution so that desired units are in 50µl, e.g. for KDR make to 1 ng/µl for a total of 50ng per well in the reactions. Store on ice. • Make 4x ATP solution to 20µM from 100mM stock in water. Store on ice • Add 50µl of the enzyme solution per well • Add 25µl 4x inhibitor • Add 25µl 4x ATP for inhibitor assay • Incubate for 10 minutes at room temperature • Stop reaction by adding 50µl 0.05N HCl per well • Wash plate **Final Concentrations for Reaction: • ATP: 5µM • 5% DMSO • 3. […] Shake on plate reader. • Read OD immediately at 450nm […]

The structures appear in SMILES notation. Some results are limits rather than exact numbers.

T1 sequence (P35968 789-1354): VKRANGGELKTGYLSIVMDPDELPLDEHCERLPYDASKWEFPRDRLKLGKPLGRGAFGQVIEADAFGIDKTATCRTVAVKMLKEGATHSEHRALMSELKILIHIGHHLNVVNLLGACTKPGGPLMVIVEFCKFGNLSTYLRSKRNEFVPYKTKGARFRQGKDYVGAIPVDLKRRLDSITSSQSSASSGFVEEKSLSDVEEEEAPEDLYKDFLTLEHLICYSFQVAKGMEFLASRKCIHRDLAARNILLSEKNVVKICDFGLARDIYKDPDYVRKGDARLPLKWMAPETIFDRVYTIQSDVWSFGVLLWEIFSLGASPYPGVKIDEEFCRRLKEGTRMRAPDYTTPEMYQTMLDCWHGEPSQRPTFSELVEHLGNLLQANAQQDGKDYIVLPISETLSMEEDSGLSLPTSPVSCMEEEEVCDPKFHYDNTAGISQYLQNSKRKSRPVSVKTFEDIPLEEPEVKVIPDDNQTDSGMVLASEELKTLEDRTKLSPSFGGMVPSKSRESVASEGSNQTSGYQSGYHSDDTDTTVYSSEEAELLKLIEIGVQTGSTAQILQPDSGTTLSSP
T2 sequence (Q02763 775-1124): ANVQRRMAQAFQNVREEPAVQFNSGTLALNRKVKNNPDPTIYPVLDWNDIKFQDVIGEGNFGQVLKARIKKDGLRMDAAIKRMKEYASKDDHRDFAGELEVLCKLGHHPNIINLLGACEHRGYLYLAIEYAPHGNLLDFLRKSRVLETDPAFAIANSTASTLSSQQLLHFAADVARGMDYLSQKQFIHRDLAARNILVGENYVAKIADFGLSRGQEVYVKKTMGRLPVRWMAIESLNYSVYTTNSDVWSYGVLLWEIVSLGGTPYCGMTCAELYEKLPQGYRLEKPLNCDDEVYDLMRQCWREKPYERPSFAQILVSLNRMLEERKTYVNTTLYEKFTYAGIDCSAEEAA

Broadly, the IC50 is the concentration at which inhibition is half-maximal. High values mean weaker potency, low ones greater potency. Turning to `c1ccc2c(c1)SCc1c(-c3ccncc3)n[nH]c1-2` [Compound III], the IC50 is 13.4 µM against KDR tyrosine kinase, above 30 µM at human Tie-2, 30.3 µM against zapfl and above 30 µM on Lck.
